In PubChem BioAssay (NCI) one finds TGI data, which are given here for one molecule.

Common to all, as to assay: NCI tumour cell line growth inhibition, 48 h
Assay [1] has as its system P388 leukemia.
Assay [2] relates to DLD-1 colon.
The subject of assay [3] is SN12K1 renal.
The test system of assay [4] is M19-MEL melanoma.
The subject of assay [5] is P388/ADR leukemia.
Assay [6] concerns NCI-H226 lung.
Assay [7] deals with NCI-H23 lung.
Assay [8] relates to XF 498 CNS.
Assay [9] has as its system HOP-92 NSCLC.
The subject of assay [10] is DMS 114 small cell lung.
Assay [11] relates to KM20L2 colon.
In assay [12] the test system is DMS 273 small cell lung.
The subject of assay [13] is SNB-78 CNS.
Assay [14] relates to HOP-18 NSCLC.
The subject of assay [15] is UACC-257 melanoma.

Each structure is given as a SMILES string.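 Results reflect a 48-hour exposure of cells in 96-well plates to compound at five concentrations. TGI is the concentration that stops growth completely.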

As for `CCC(C)C1NC(=O)CNC(=O)C2Cc3c([nH]c4cc(O)ccc34)S(=O)CC(NC(=O)CNC1=O)C(=O)NC(CC(=O)O)C(=O)N1CC(O)CC1C(=O)NC(C(C)C(O)CO)C(=O)N2` (stereo not given), the TGI was 14.9 µM in [1]; greater than 100 µM in assay [2]; greater than 100 µM in assay [3]; 24.2 µM in assay [4]; 18.4 µM in [5]; 8.08 µM in assay [6]. In addition, the TGI in assay [7] is 5.81 µM; in assay [8] it was 5.88 µM; in assay [9], 5.78 µM; in assay [10], 3.78 µM; in [11], greater than 100 µM; in assay [12], 14.9 µM. Besides, the TGI in assay [13] was greater than 100 µM; in assay [14], greater than 88.9 µM; in [15], 6.73 µM.
